Test results from US20200347043A1, “MODULATORS OF THE INTEGRATED STRESS PATHWAY” (Calico Life Sciences LLC, priority 2019, published 2020).
pEC50: −log10 of the molar value.

test system: HEK293T cells carrying the ATF4 luciferase reporter; assay: ATF4-Luc assay (in vitro model of VWMD); assay type: cell-based, human; conditions: Homo sapiens, HEK-293T, 1 μg/mL tunicamycin, 7 hours, One Glo luminescence
Summary of the method: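 Tunicamycin (1 μg/mL) stress with co-added compound for 7 hours in HEK293T cells stably carrying an ATF4 5′-UTR–luciferase reporter. EC50 values come from the luminescent signal (One Glo).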

| Compound | pEC50 |
| --- | --- |
| O=C(NC12CC(c3cnn(-c4ccc(Cl)c(F)c4)c3)(C1)C2)[C@H]1C[C@@H](O)c2cc(Cl)ccc2O1 [Compound 237, (2R,4R)-6-chloro-N-{3-[1-(4-chloro-3-fluorophenyl)-1H-pyrazol-4-yl]bicyclo[1.1.1]pentan-1-yl}-4-hydroxy-3,4-dihydro-2H-1-benzopyran-2-carboxamide] | > 8.00 |
| O=C(NC12CC(c3cnn(-c4ccc(Cl)c(F)c4)c3)(C1)C2)[C@@H]1C[C@@H](O)c2cc(Cl)ccc2O1 [Compound 238, (2S,4R)-6-chloro-N-{3-[1-(4-chloro-3-fluorophenyl)-1H-pyrazol-4-yl]bicyclo[1.1.1]pentan-1-yl}-4-hydroxy-3,4-dihydro-2H-1-benzopyran-2-carboxamide] | 7.30 to 8.00 |
| O=C(CO[C@H]1C[C@@H](OC(F)(F)F)C1)NC12CCC(NC(=O)[C@@H]3C[C@@H](O)c4cc(Cl)ccc4O3)(CC1)CC2 [Compound 239, (2S,4R)-6-chloro-4-hydroxy-N-[4-(2-{[cis-3-(trifluoromethoxy)cyclobutyl]oxy}acetamido)bicyclo[2.2.2]octan-1-yl]-3,4-dihydro-2H-1-benzopyran-2-carboxamide] | 7.30 to 8.00 |
| O=C(NC12CC(n3ccc(-c4ccc(Cl)cc4)c3)(C1)C2)[C@H]1C[C@@H](O)c2cc(Cl)ccc2O1 [Compound 240, (2R,4R)-6-chloro-N-{3-[3-(4-chlorophenyl)-1H-pyrrol-1-yl]bicyclo[1.1.1]pentan-1-yl}-4-hydroxy-3,4-dihydro-2H-1-benzopyran-2-carboxamide] | > 8.00 |
| O=C(NC12CC(n3ccc(-c4ccc(Cl)cc4)c3)(C1)C2)[C@@H]1C[C@@H](O)c2cc(Cl)ccc2O1 [Compound 241, (2S,4R)-6-chloro-N-{3-[3-(4-chlorophenyl)-1H-pyrrol-1-yl]bicyclo[1.1.1]pentan-1-yl}-4-hydroxy-3,4-dihydro-2H-1-benzopyran-2-carboxamide] | 6.60 to 7.30 |
| O=C(NC12CC(n3ccc(-c4ccc(Cl)c(F)c4)c3)(C1)C2)[C@H]1C[C@@H](O)c2cc(Cl)ccc2O1 [Compound 242, (2R,4R)-6-chloro-N-{3-[3-(4-chloro-3-fluorophenyl)-1H-pyrrol-1-yl]bicyclo[1.1.1]pentan-1-yl}-4-hydroxy-3,4-dihydro-2H-1-benzopyran-2-carboxamide] | > 8.00 |
| O=C(NC12CC(n3ccc(-c4ccc(Cl)c(F)c4)c3)(C1)C2)[C@@H]1C[C@@H](O)c2cc(Cl)ccc2O1 [Compound 243, (2S,4R)-6-chloro-N-{3-[3-(4-chloro-3-fluorophenyl)-1H-pyrrol-1-yl]bicyclo[1.1.1]pentan-1-yl}-4-hydroxy-3,4-dihydro-2H-1-benzopyran-2-carboxamide] | 6.60 to 7.30 |
| O=C(NC12CC(n3ccc(-c4ccc(C(F)(F)F)nc4)c3)(C1)C2)[C@H]1C[C@@H](O)c2cc(Cl)ccc2O1 [Compound 244, (2R,4R)-6-chloro-4-hydroxy-N-(3-{3-[6-(trifluoromethyl)pyridin-3-yl]-1H-pyrrol-1-yl}bicyclo[1.1.1]pentan-1-yl)-3,4-dihydro-2H-1-benzopyran-2-carboxamide] | > 8.00 |
| O=C(NC12CC(n3ccc(-c4ccc(C(F)(F)F)nc4)c3)(C1)C2)[C@@H]1C[C@@H](O)c2cc(Cl)ccc2O1 [Compound 245, (2S,4R)-6-chloro-4-hydroxy-N-(3-{3-[6-(trifluoromethyl)pyridin-3-yl]-1H-pyrrol-1-yl}bicyclo[1.1.1]pentan-1-yl)-3,4-dihydro-2H-1-benzopyran-2-carboxamide] | 6.60 to 7.30 |
| O=C(NC12CC(c3cc(-c4ccc(Cl)cc4)no3)(C1)C2)[C@H]1C[C@@H](O)c2cc(Cl)ccc2O1 [Compound 246, (2R,4R)-6-chloro-N-{3-[3-(4-chlorophenyl)-1,2-oxazol-5-yl]bicyclo[11.11]pentan-1-yl}-4-hydroxy-3,4-dihydro-2H-1-benzopyran-2-carboxamide] | 7.30 to 8.00 |
| O=C(NC12CC(c3cc(-c4ccc(Cl)cc4)no3)(C1)C2)[C@@H]1C[C@@H](O)c2cc(Cl)ccc2O1 [Compound 247, (2S,4R)-6-chloro-N-{3-[3-(4-chlorophenyl)-1,2-oxazol-5-yl]bicyclo[1.1.1]pentan-1-yl}-4-hydroxy-3,4-dihydro-2H-1-benzopyran-2-carboxamide] | 6.60 to 7.30 |
| O=C(NC12CC(c3cc(-c4ccc(Cl)c(F)c4)no3)(C1)C2)[C@H]1C[C@@H](O)c2cc(Cl)ccc2O1 [Compound 248, (2R,4R)-6-chloro-N-{3-[3-(4-chloro-3-fluorophenyl)-1,2-oxazol-5-yl]bicyclo[1.1.1]pentan-1-yl}-4-hydroxy-3,4-dihydro-2H-1-benzopyran-2-carboxamide] | 7.30 to 8.00 |
| O=C(NC12CC(c3cc(-c4ccc(Cl)c(F)c4)no3)(C1)C2)[C@@H]1C[C@@H](O)c2cc(Cl)ccc2O1 [Compound 249, (2S,4R)-6-chloro-N-{3-[3-(4-chloro-3-fluorophenyl)-1,2-oxazol-5-yl]bicyclo[11.11]pentan-1-yl}-4-hydroxy-3,4-dihydro-2H-1-benzopyran-2-carboxamide] | 6.60 to 7.30 |
| O=C(NC12CC(c3cc(-c4ccc(C(F)(F)F)nc4)no3)(C1)C2)[C@H]1C[C@@H](O)c2cc(Cl)ccc2O1 [Compound 250, (2R,4R)-6-chloro-4-hydroxy-N-(3-{3-[6-(trifluoromethyl)pyridin-3-yl]-1,2-oxazol-5-yl}bicyclo[1.1.1]pentan-1-yl)-3,4-dihydro-2H-1-benzopyran-2-carboxamide] | 6.60 to 7.30 |
| O=C(NC12CC(c3cc(-c4ccc(C(F)(F)F)nc4)no3)(C1)C2)[C@@H]1C[C@@H](O)c2cc(Cl)ccc2O1 [Compound 251, (2S,4R)-6-chloro-4-hydroxy-N-(3-{3-[6-(trifluoromethyl)pyridin-3-yl]-1,2-oxazol-5-yl}bicyclo[1.1.1]pentan-1-yl)-3,4-dihydro-2H-1-benzopyran-2-carboxamide] | < 5.70 |
| O=C(NC12CC(c3ncc(-c4ccc(Cl)cc4)o3)(C1)C2)[C@H]1C[C@@H](O)c2cc(Cl)ccc2O1 [Compound 254, (2R,4R)-6-chloro-N-{3-[5-(4-chlorophenyl)-1,3-oxazol-2-yl]bicyclo[1.1.1]pentan-1-yl}-4-hydroxy-3,4-dihydro-2H-1-benzopyran-2-carboxamide] | > 8.00 |
| O=C(NC12CC(c3ncc(-c4ccc(Cl)cc4)o3)(C1)C2)[C@@H]1C[C@@H](O)c2cc(Cl)ccc2O1 [Compound 255, (2S,4R)-6-chloro-N-{3-[5-(4-chlorophenyl)-1,3-oxazol-2-yl]bicyclo[1.1.1]pentan-1-yl}-4-hydroxy-3,4-dihydro-2H-1-benzopyran-2-carboxamide] | 7.30 to 8.00 |
| O=C(NC12CC(c3cc(-c4ccc(Cl)cc4)on3)(C1)C2)[C@H]1C[C@@H](O)c2cc(Cl)ccc2O1 [Compound 256, (2R,4R)-6-chloro-N-{3-[5-(4-chlorophenyl)-1,2-oxazol-3-yl]bicyclo[1.1.1]pentan-1-yl}-4-hydroxy-3,4-dihydro-2H-1-benzopyran-2-carboxamide] | > 8.00 |
| O=C(NC12CC(c3cc(-c4ccc(Cl)cc4)on3)(C1)C2)[C@@H]1C[C@@H](O)c2cc(Cl)ccc2O1 [Compound 257, (2S,4R)-6-chloro-N-{3-[5-(4-chlorophenyl)-1,2-oxazol-3-yl]bicyclo[1.1.1]pentan-1-yl}-4-hydroxy-3,4-dihydro-2H-1-benzopyran-2-carboxamide] | 6.60 to 7.30 |
